Results taken from ChEMBL document CHEMBL1201862, “PubChem BioAssay data set” (2004).
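Cultured in 96-well plates, cells were exposed to test compound for 48 hours across five concentrations. Abbreviation: GI50, concentration required for 50% inhibition of growth.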 Active and inactive are the calls of the source. No stated cut-off is given here; in the data, active = GI50 up to about 1.1 µM and inactive = higher.

Assays:
Experiment in all cases: growth of human tumour cells (NCI), 48 h
A498 = system: A498
ACHN = system: ACHN
EKVX = system: EKVX
HCC 2998 = system: HCC 2998
HCT-15 = system: HCT-15
MOLT-4 = system: MOLT-4
Malme-3M = system: Malme-3M
NCI-H23 = system: NCI-H23
NCI-H460 = system: NCI-H460
NCI-H522 = system: NCI-H522
OVCAR-5 = system: OVCAR-5
SN12C = system: SN12C
SNB-19 = system: SNB-19
SR = system: SR
U-251 = system: U-251
UACC-257 = system: UACC-257
UACC-62 = system: UACC-62
SK-MEL-2 = system: SK-MEL-2
SW-620 = system: SW-620

Cc1cc(C)nc(NS(=O)(=O)c2ccc(Nc3c4ccc(Cl)cc4nc4c(C(=O)Nc5ccc(S(N)(=O)=O)cc5)cccc34)cc2)n1
GI50 (A498): 14.8 µM (inactive) | GI50 (ACHN): 32.1 µM (inactive) | GI50 (EKVX): 21 µM (inactive) | GI50 (HCC 2998): 16.6 µM (inactive) | GI50 (HCT-15): 17.9 µM | GI50 (MOLT-4): 9.77 µM (inactive) | GI50 (Malme-3M): 33 µM (inactive) | GI50 (NCI-H23): 15.1 µM (inactive) | GI50 (NCI-H460): 17.1 µM (inactive) | GI50 (NCI-H522): 10.9 µM (inactive) | GI50 (OVCAR-5): 14.7 µM (inactive) | GI50 (SN12C): 15 µM (inactive) | GI50 (SNB-19): 24.6 µM (inactive) | GI50 (SR): 16.6 µM (inactive) | GI50 (U-251): 14.4 µM (inactive) | GI50 (UACC-257): 18.8 µM (inactive) | GI50 (UACC-62): 25 µM (inactive)

CC(C)=CCC/C(C)=C/CC/C(C)=C/CC/C=C(\C)CC/C=C(\C)CCC1SC1(C)C (stereo not drawn)
GI50 (A498): > 100 µM (inactive) | GI50 (ACHN): > 100 µM (inactive) | GI50 (EKVX): > 100 µM (inactive) | GI50 (HCC 2998): > 100 µM (inactive) | GI50 (HCT-15): > 100 µM | GI50 (MOLT-4): > 100 µM (inactive) | GI50 (Malme-3M): > 100 µM (inactive) | GI50 (NCI-H23): > 100 µM (inactive) | GI50 (NCI-H460): > 100 µM (inactive) | GI50 (NCI-H522): > 100 µM (inactive) | GI50 (OVCAR-5): > 100 µM (inactive) | GI50 (SK-MEL-2): > 100 µM (inactive) | GI50 (SN12C): > 100 µM (inactive) | GI50 (SNB-19): > 100 µM (inactive) | GI50 (SW-620): 52.5 µM (inactive) | GI50 (U-251): > 100 µM (inactive) | GI50 (UACC-257): > 100 µM (inactive) | GI50 (UACC-62): > 100 µM (inactive)

COc1ccccc1N1C(=O)C2c3[nH]c4ccccc4c3C3CCC(C(C)(C)C)CC3C2C1=O (stereo not drawn)
GI50 (A498): > 100 µM (inactive) | GI50 (ACHN): > 100 µM (inactive) | GI50 (EKVX): > 100 µM (inactive) | GI50 (HCC 2998): > 100 µM (inactive) | GI50 (HCT-15): > 100 µM | GI50 (MOLT-4): > 100 µM (inactive) | GI50 (Malme-3M): > 100 µM (inactive) | GI50 (NCI-H23): > 100 µM (inactive) | GI50 (NCI-H522): > 100 µM (inactive) | GI50 (SN12C): > 100 µM (inactive) | GI50 (SNB-19): > 100 µM (inactive) | GI50 (SR): 97.1 µM (inactive) | GI50 (SW-620): > 100 µM (inactive) | GI50 (U-251): > 100 µM (inactive) | GI50 (UACC-257): > 100 µM (inactive) | GI50 (UACC-62): > 100 µM (inactive)

CCn1cc(/C=C/C(C)c2cn(CC)c(=O)[nH]c2=O)c(=O)[nH]c1=O (stereo not drawn)
GI50 (ACHN): > 100 µM (inactive) | GI50 (EKVX): > 100 µM (inactive) | GI50 (HCC 2998): > 100 µM (inactive) | GI50 (HCT-15): > 100 µM | GI50 (MOLT-4): > 100 µM (inactive) | GI50 (Malme-3M): > 100 µM (inactive) | GI50 (NCI-H23): > 100 µM (inactive) | GI50 (NCI-H460): > 100 µM (inactive) | GI50 (NCI-H522): > 100 µM (inactive) | GI50 (OVCAR-5): > 100 µM (inactive) | GI50 (SK-MEL-2): > 100 µM (inactive) | GI50 (SN12C): > 100 µM (inactive) | GI50 (SNB-19): > 100 µM (inactive) | GI50 (SW-620): > 100 µM (inactive) | GI50 (U-251): > 100 µM (inactive) | GI50 (UACC-257): > 100 µM (inactive) | GI50 (UACC-62): > 100 µM (inactive)

COc1cccc(C(=O)O[C@H]2[C@@H]3[C@]4(OC(C)=O)CO[C@@H]4C[C@H](O)[C@@]3(C)C(=O)[C@H](OC(C)=O)C3=C(C)[C@@H](OC(=O)[C@H](O)[C@@H](NC(=O)OC(C)(C)C)c4ccco4)C[C@]2(O)C3(C)C)c1
GI50 (ACHN): 0.139 µM (active) | GI50 (EKVX): 0.173 µM (active) | GI50 (HCC 2998): < 0.00375 µM (active) | GI50 (HCT-15): < 0.00375 µM | GI50 (MOLT-4): < 0.00375 µM (active) | GI50 (Malme-3M): 1.47 µM (inactive) | GI50 (NCI-H23): 6.04 µM (inactive) | GI50 (NCI-H460): < 0.00375 µM (active) | GI50 (NCI-H522): < 0.00375 µM (active) | GI50 (OVCAR-5): 0.147 µM (active) | GI50 (SK-MEL-2): < 0.00375 µM (active) | GI50 (SN12C): 0.064 µM (active) | GI50 (SNB-19): 0.133 µM (active) | GI50 (SR): < 0.00375 µM (active) | GI50 (SW-620): < 0.00375 µM (active) | GI50 (U-251): < 0.00375 µM (active) | GI50 (UACC-257): 21.3 µM (inactive) | GI50 (UACC-62): 0.0442 µM (active)

O=C(NCCOCCO)c1ccc(O)cc1
GI50 (A498): > 100 µM (inactive) | GI50 (ACHN): > 100 µM (inactive) | GI50 (EKVX): 20.4 µM (inactive) | GI50 (HCT-15): > 100 µM | GI50 (MOLT-4): > 100 µM (inactive) | GI50 (NCI-H23): > 100 µM (inactive) | GI50 (NCI-H460): > 100 µM (inactive) | GI50 (NCI-H522): > 100 µM (inactive) | GI50 (SN12C): > 100 µM (inactive) | GI50 (SW-620): > 100 µM (inactive) | GI50 (U-251): > 100 µM (inactive) | GI50 (UACC-62): > 100 µM (inactive)

C/C=C1/C=CC2c3[nH]c4ccccc4c3CCN2C1 (stereo not drawn)
GI50 (ACHN): > 400 µM (inactive) | GI50 (EKVX): > 400 µM (inactive) | GI50 (HCC 2998): > 400 µM (inactive) | GI50 (HCT-15): > 400 µM | GI50 (MOLT-4): > 400 µM (inactive) | GI50 (Malme-3M): > 400 µM (inactive) | GI50 (NCI-H23): > 400 µM (inactive) | GI50 (NCI-H460): > 400 µM (inactive) | GI50 (NCI-H522): 195 µM (inactive) | GI50 (SK-MEL-2): > 400 µM (inactive) | GI50 (SN12C): > 400 µM (inactive) | GI50 (SNB-19): 187 µM (inactive) | GI50 (SR): 331 µM (inactive) | GI50 (SW-620): > 400 µM (inactive) | GI50 (U-251): > 400 µM (inactive) | GI50 (UACC-257): 243 µM (inactive) | GI50 (UACC-62): > 400 µM (inactive)

COc1cc(CC(=O)c2ccc3c(c2)OCO3)cc(OC)c1OC
GI50 (A498): > 100 µM (inactive) | GI50 (ACHN): > 100 µM (inactive) | GI50 (EKVX): > 100 µM (inactive) | GI50 (HCC 2998): > 100 µM (inactive) | GI50 (HCT-15): > 100 µM | GI50 (MOLT-4): > 100 µM (inactive) | GI50 (Malme-3M): > 100 µM (inactive) | GI50 (NCI-H23): > 100 µM (inactive) | GI50 (NCI-H460): 73.3 µM (inactive) | GI50 (NCI-H522): > 100 µM (inactive) | GI50 (OVCAR-5): > 100 µM (inactive) | GI50 (SK-MEL-2): > 100 µM (inactive) | GI50 (SN12C): > 100 µM (inactive) | GI50 (SNB-19): > 100 µM (inactive) | GI50 (SW-620): 19.3 µM (inactive) | GI50 (U-251): 46.6 µM (inactive) | GI50 (UACC-257): > 100 µM (inactive) | GI50 (UACC-62): > 100 µM (inactive)
